In ChEMBL document CHEMBL1201862, “PubChem BioAssay data set” (2004):
The source made the active and inactive calls.

Columns and labels:
[1] = viability loss in HEK293T cells – cell-based, CellTiter-Glo luminescence, dry powder, set 6, cytotoxicity control, dose response (AID 651949); assay type: functional; conditions: HEK293
[2] = HepG2 hepatoma cell viability loss – plate reader, dry powder, cytotoxicity control, dose response (AID 651947); assay type: functional, cell-based
[3] = target: Endoplasmic reticulum aminopeptidase 2 (Homo sapiens, UniProt Q6P179); test: inhibition of ERAP2 arginine-AMC cleavage – biochemical, fluorescence plate reader, cherry-picked, set 2, selectivity assay for selective ERAP1 modulator project, dose response (AID 743320)
Sequence of Endoplasmic reticulum aminopeptidase 2 (Q6P179 whole entry): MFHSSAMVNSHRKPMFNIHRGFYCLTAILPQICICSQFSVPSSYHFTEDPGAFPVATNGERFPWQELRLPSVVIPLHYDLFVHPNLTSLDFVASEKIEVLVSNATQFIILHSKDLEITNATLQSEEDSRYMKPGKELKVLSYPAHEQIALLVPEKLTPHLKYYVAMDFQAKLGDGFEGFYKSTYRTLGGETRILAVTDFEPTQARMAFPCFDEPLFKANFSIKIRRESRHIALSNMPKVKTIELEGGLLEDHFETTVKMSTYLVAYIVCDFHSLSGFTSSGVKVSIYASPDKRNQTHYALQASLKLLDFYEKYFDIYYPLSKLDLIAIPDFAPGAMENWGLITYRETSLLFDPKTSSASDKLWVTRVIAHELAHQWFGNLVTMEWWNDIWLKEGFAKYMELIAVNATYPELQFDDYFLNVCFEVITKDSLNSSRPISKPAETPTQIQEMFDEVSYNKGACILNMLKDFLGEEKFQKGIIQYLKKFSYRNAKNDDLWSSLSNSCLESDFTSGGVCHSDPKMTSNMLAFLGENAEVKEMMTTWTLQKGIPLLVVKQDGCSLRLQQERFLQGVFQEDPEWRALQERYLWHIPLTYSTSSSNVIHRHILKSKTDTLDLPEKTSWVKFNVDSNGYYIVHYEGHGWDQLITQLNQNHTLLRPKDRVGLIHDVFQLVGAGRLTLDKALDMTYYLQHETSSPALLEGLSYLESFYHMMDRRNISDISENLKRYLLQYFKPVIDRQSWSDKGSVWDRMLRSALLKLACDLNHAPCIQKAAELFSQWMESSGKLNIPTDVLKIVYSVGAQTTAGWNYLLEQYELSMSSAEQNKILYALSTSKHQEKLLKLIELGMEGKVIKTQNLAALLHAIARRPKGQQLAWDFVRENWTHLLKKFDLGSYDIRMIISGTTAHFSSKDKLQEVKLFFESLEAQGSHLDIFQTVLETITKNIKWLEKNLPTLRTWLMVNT

[4] = target: Endoplasmic reticulum aminopeptidase 1 (Homo sapiens, UniProt Q9NZ08); test: inhibition of human ERAP1 enzyme activity – biochemical, cherry-pick, set 2, plate reader, dose response (AID 743314)
Sequence of Endoplasmic reticulum aminopeptidase 1 (Q9NZ08 whole entry): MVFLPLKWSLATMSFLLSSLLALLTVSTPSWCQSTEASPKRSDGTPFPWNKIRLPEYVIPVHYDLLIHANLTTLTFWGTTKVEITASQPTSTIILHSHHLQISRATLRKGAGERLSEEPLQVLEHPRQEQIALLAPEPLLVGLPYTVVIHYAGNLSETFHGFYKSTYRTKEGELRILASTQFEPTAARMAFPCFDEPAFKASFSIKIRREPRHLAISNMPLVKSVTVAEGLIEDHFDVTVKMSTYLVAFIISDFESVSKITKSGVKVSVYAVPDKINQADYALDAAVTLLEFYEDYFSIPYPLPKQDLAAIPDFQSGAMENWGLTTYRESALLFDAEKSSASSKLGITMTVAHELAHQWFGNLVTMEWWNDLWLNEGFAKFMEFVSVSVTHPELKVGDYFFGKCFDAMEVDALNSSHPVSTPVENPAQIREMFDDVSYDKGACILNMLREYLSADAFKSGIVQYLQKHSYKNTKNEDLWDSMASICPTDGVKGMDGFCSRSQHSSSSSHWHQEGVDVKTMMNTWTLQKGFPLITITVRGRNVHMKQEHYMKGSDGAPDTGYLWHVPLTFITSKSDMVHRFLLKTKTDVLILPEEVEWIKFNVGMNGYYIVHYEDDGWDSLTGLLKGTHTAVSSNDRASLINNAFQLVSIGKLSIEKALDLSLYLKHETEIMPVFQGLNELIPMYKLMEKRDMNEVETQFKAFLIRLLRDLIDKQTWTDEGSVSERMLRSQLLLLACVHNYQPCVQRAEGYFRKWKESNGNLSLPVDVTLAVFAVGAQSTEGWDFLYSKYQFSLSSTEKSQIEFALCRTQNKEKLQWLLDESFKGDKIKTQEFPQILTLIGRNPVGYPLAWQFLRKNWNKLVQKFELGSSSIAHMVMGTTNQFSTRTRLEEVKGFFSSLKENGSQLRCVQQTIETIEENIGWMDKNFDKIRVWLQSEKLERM

[5] = Dd2 malaria parasite growth inhibition potency – SYBR Green, dry powder samples, dose response (AID 1159566); assay type: functional, cell-based;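 note: potency for growth inhibition with lower SYBR green DNA signal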
[6] = antimalarial activity against Dd2 parasites – SYBR Green fluorescence, erythrocytes, dry powder, set 2, dose response (AID 1159574); assay type: functional, cell-based
[7] = P. falciparum Dd2 growth inhibitors, dose response, SYBR Green, cherry-picked samples (AID 1159567); assay type: functional, cell-based
[8] = growth inhibition of yeast DHODH-expressing 3D7 parasites – SYBR Green, dry powder samples, dose response (AID 1159570); assay type: functional, cell-based;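 note: parasite growth measured after 72 hours of compound exposure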
[9] = toxicity to human HepG2 hepatoma cells – cell-based, plate reader, dry powder samples, cytotoxicity control, dose response (AID 1159569); assay type: functional;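 note: inhibitor potency with signal falling toward the positive control level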
[10] = growth inhibition of PfATP4-mutant resistant parasites – NITD609-resistant line, SYBR Green, dry powder, dose response (AID 1159571); assay type: functional, cell-based;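 note: parasites synchronized at ring stage by sorbitol before testing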
BJ [11] = test: BJ-TERT-LT-ST fibroblast viability loss – cell-based, RAS-independent, luminescence, dose response (AID 1935); assay type: functional; conditions: Homo sapiens;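 note: BJ fibroblasts immortalized with TERT plus LT and ST oncogenes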
[12] = cytotoxicity toward HT-29 cells – cell-based, CellTiter-Glo luminescence, IC50, dose response (AID 1117330); assay type: functional
BJ [13] = test: cells; assay type: functional, cell-based; conditions: Homo sapiens
[14] = off-target signal loss in HeLa-CEM21 co-culture – HeLa F-luc CTL cells, cherry-picked, counter-screen for HIV-1 Env fusion inhibitor project, dose response (AID 652040); assay type: functional, cell-based;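 note: potency for signal decrease marking cytotoxic or nonspecific inhibition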
P388 = test: cells; assay type: functional; conditions: Mus musculus
[15] = CellTiter-Glo luminescence survival assay, SW480 colon tumor line, concentration-response curve, half-maximal inhibitory concentration (AID 1117338); assay type: functional
HEK293 = test: EBV LMP1 TES2 canonical NF-kB signalling blockers – cell-based, HEK293, luciferase, cherry-pick, dose response (AID 588343); assay type: functional; conditions: Homo sapiens
[16] = SNU-C1 cell viability reduction, dose response, CellTiter-Glo luminescence (AID 1117323); assay type: functional, cell-based
BJ [17] = test: BJ-TERT fibroblast viability loss – cell-based, RAS-independent, luminescence, dose response (AID 1933); assay type: functional; conditions: Homo sapiens
[18] = Reduced DLD-1 viability, concentration-response, CellTiter-Glo luminescence (AID 1117352); assay type: functional
[19] = cytotoxicity toward HCT116 cells – cell-based, CellTiter-Glo luminescence, IC50, dose response (AID 1117332); assay type: functional; conditions: HCT-116
Streptococcus = test: GAS UMAA2166 growth inhibition – luminescence, BacTiterGlo, counter-screen for streptokinase expression inhibitor project, dose response (AID 1915); assay type: functional, organism-based;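 note: potency for reduction of bacterial viability or growth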
[20] = HCT116 cell viability decrease, GSK3B pretreatment – CellTiter-Glo, IC50, dose response (AID 1117339); assay type: functional; conditions: HCT-116
[21] = rise of 4N DNA cells, HeLa – IC50, dose response (AID 1117351); assay type: functional, cell-based
[22] = system: Streptococcus sp. 'group A'; test: Streptococcus pyogenes SK(-)GAS viability under kanamycin – luminescence, BacTiterGlo, confirmation, counter-screen for streptokinase expression inhibitor project, dose response (AID 1900); assay type: functional, organism-based
[23] = cytotoxicity toward Colo320 cells – cell-based, CellTiter-Glo luminescence, IC50, dose response (AID 1117334); assay type: functional; conditions: COLO 320
SN12K1 = test: cells; assay type: functional; conditions: Homo sapiens
[24] = DRD fibroblast viability loss – cell-based, non-viral oncogenic, luminescence, dose response (AID 1934); assay type: functional; conditions: Homo sapiens
[25] = rise of 2N DNA cells, HeLa – IC50, dose response (AID 1117349); assay type: functional, cell-based
[26] = RKO cell viability reduction, dose response, CellTiter-Glo luminescence (AID 1117322); assay type: functional
P388/ADR = test: cells; assay type: functional; conditions: Mus musculus
[27] = Trypanosoma cruzi growth suppression in host cells – NIH3T3 host cells, beta-gal luminescence, confirmation (AID 2044); assay type: functional, cell-based;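 note: intracellular parasites grown in NIH/3T3 mouse fibroblasts as host cells; luminescent beta-galactosidase reporter signal from transgenic T. cruzi replicating inside host cells; inhibitors lower the luminescence signal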
INS1 = test: INS-1E survival protection against cytokine death – cell-based, luminescence, retest, dose response (AID 449756); assay type: functional; conditions: Rattus norvegicus;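 note: cell death triggered by IL-1 beta plus TNF-alpha plus IFN-gamma mixture; protective hits raise ATP signal compared with cytokine alone wells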
[28] = NIH3T3 cell viability loss – ATP luminescence, mouse fibroblasts, counter-screen, dose response (AID 2010); assay type: functional, cell-based;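 note: cells exposed to compound for about 90 hours before reading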
[29] = target: COUP transcription factor 2 (Homo sapiens, UniProt P24468); test: Luminescence-based cell-based high throughput dose response assay to identify inhibitors of COUP-TFII (NR2F2).; assay type: functional;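 note: HEK293 cells transiently cotransfected with COUP-TFII expression vector and reporter; luciferase reporter luminescence driven by COUP-TFII from the pX2-168 reporter plasmid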
Sequence of COUP transcription factor 2 (P24468 whole entry): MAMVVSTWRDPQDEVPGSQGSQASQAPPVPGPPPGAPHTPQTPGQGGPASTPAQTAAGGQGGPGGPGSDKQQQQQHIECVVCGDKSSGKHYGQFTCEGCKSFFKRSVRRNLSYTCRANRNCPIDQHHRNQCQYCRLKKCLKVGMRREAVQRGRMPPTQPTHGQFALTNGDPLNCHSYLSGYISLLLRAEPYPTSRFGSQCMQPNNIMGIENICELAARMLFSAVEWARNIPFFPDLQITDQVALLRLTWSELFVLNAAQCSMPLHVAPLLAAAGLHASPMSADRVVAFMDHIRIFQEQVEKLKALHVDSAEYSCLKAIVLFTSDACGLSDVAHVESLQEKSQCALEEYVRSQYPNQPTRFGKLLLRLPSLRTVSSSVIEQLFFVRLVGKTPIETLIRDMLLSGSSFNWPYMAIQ

[30] = inhibitors of non-replicating M. tuberculosis, dose response, luciferase, dry powder (AID 651620); assay type: functional; conditions: Mycobacterium tuberculosis
[31] = HeLa cell viability loss – plate reader, dry powder, cytotoxicity control, dose response (AID 651946); assay type: functional, cell-based
[32] = inhibitors of non-replicating M. tuberculosis, dose response, luciferase, dry powder (AID 651619); assay type: functional; conditions: Mycobacterium tuberculosis
[33] = reduced cellular PGC1a acetyl-lysine signal – cell-based, cherry-picked samples, dose response (AID 720514); assay type: functional;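 note: potency may reflect raised or lowered acetylation signal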
Fibrinogen beta chain [34] = target: T1, Fibrinogen beta chain (Homo sapiens, UniProt P02675); test: Fluorescence polarization-based biochemical high throughput dose response assay to identify inhibitors that disrupt the binding of a cyclic peptide (Tn6) to the fibrin proteolytic product D-Dimer and fragment E complex [DD(E )].
T1 sequence (P02675 whole entry, the tested form may be a part): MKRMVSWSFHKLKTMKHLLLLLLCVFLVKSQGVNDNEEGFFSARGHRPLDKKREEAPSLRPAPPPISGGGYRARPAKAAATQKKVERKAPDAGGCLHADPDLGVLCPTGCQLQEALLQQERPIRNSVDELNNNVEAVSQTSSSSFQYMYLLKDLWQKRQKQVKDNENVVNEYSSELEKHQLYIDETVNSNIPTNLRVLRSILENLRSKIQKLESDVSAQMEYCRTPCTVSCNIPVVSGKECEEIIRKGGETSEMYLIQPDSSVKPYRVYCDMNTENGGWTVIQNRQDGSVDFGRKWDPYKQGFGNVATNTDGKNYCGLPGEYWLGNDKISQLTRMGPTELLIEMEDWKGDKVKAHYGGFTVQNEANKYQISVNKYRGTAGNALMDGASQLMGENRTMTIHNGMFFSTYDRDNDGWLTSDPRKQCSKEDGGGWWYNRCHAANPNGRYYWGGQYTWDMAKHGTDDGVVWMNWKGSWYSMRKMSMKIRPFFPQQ

Troponin, cardiac muscle = Troponin, cardiac muscle (Homo sapiens, UniProt P19429+P45379+P63316); test: Fluorescence-based biochemical high throughput dose response assay for activators of the calcium sensitivity of cardiac Regulated Thin Filaments (RTF). [Related pubchem assays (depositor defined):AID493008, AID493018, AID504382, AID504383]; assay type: protein-complex assay
Fibrinogen beta chain [35] = target: T1, Fibrinogen beta chain; test: Fluorescence polarization-based biochemical high throughput dose response assay to identify inhibitors that disrupt the binding of a cyclic peptide (Tn7) to the fibrin proteolytic product D-Dimer and fragment E complex [DD(E )].

**Q.** With `CS(=O)(=O)c1ccc(CSc2nnc(-c3ccccc3)o2)cc1` as the compound, how does the AC50 [1] read?
**A.** 49 µM (active)

**Q.** What about the AC50 [2] of the same compound?
**A.** 0.28 µM (active)

**Q.** Which results are given for `CCC(=O)N(C)C[C@@H]1Oc2ncc(C#Cc3ccncc3)cc2C(=O)N([C@@H](C)CO)C[C@@H]1C`?
**A.** AC50 [3]: 17.2 µM (active); AC50 [4]: 2.86 µM (active)

**Q.** With `COc1ccc(NC(=O)N2CCCCN3[C@H](CO)[C@H](c4ccc(C#Cc5ccccc5)cc4)[C@@H]3C2)cc1` as the compound, how does the AC50 [5] read?
**A.** 0.00384 µM (active)

**Q.** What about the AC50 [6] of the same compound?
**A.** 0.00652 µM (active)

**Q.** What about the AC50 [7] of the same compound?
**A.** < 0.3 µM (active)

**Q.** And the AC50 [8]?
**A.** 0.00346 µM (active)

**Q.** And the AC50 [9]?
**A.** 85.1 µM (active)

**Q.** What about the AC50 [10] of the same compound?
**A.** 0.00309 µM (active)

**Q.** With `O=c1[nH]c(=O)n([C@H]2C[C@H](O)[C@@H](CO)O2)cc1F` [FLOXURIDINE] as the compound, how does the EC50 (BJ [11]) read?
**A.** > 150 µM (inconclusive)

**Q.** And the IC50 [12]?
**A.** > 20 µM (inactive)

**Q.** What about the EC50 (BJ [13]) of the same compound?
**A.** 0.596 µM (active)

**Q.** And the AC50 [14]?
**A.** > 70 µM (inactive)

**Q.** What about the GI50 (P388) of the same compound?
**A.** 0.25 µM (active)

**Q.** And the IC50 [15]?
**A.** > 20 µM (inactive)

**Q.** And the AC50 (HEK293)?
**A.** 0.0619 µM (active)

**Q.** What about the IC50 [16] of the same compound?
**A.** > 20 µM (inactive)

**Q.** And the EC50 (BJ [17])?
**A.** 57 µM (active)

**Q.** What about the IC50 [18] of the same compound?
**A.** 0.001 µM (active)

**Q.** And the IC50 [19]?
**A.** 0.001 µM (active)

**Q.** What about the EC50 (Streptococcus) of the same compound?
**A.** 1.34 µM (active)

**Q.** And the IC50 [20]?
**A.** 0.001 µM (active)

**Q.** What about the IC50 [21] of the same compound?
**A.** > 10 µM (inactive)

**Q.** And the EC50 [22]?
**A.** 0.916 µM (active)

**Q.** What about the IC50 [23] of the same compound?
**A.** > 20 µM (inactive)

**Q.** And the GI50 (SN12K1)?
**A.** 0.34 µM (active)

**Q.** What about the EC50 [24] of the same compound?
**A.** > 150 µM (not active)

**Q.** What about the IC50 [25] of the same compound?
**A.** > 10 µM (inactive)

**Q.** What about the IC50 [26] of the same compound?
**A.** 0.001 µM (active)

**Q.** What about the GI50 (P388/ADR) of the same compound?
**A.** 0.25 µM (active)

**Q.** Which EC50 (cells) does the source give for `Cc1ccc(-c2cc3cccc[n+]3cc2-c2ccc(C)cc2)cc1` here?
**A.** 0.019 µM (active)

**Q.** What about the EC50 [27] of the same compound?
**A.** < 0.1 µM (active)

**Q.** And the AC50 (INS1)?
**A.** 0.572 µM (active)

**Q.** What about the EC50 [28] of the same compound?
**A.** > 60 µM (not active)

**Q.** What about the IC50 [29] of the same compound?
**A.** 5.1 µM (active)

**Q.** What does the source list for `Brc1ccc(-c2nnc(SCc3ccccn3)o2)cc1`?
**A.** IC90 [30]: 4 µM (active); AC50 [31]: > 52 µM (inactive); IC90 [32]: 4 µM (active); AC50 [2]: 5.42 µM (active)

**Q.** For `CC(=O)Nc1ccc2c(CSc3nncs3)cc(=O)oc2c1`, which AC50 [33] is on record?
**A.** 26.5 µM (active)

**Q.** What does the source list for `[O-][n+]1c2c([n+]([O-])c3cc(N4CCCC4)c(F)cc31)CCC2`?
**A.** IC50 (Fibrinogen beta chain [34]): 26.1 µM (inactive); EC50 (Troponin, cardiac muscle): > 2.65 µM (active); IC50 (Fibrinogen beta chain [35]): > 83.3 µM (inactive)
